Here are results for 18 compounds from ChEMBL document CHEMBL4340547, “Synthesis and SAR development of quinoline analogs as novel P2X7 receptor antagonists” (Bioorg Med Chem Lett, 2019).

Data set [1] is described as follows: Intrinsic clearance in human liver microsomes. The following applies: read-out: CLH. The class given is ADME, Microsome. Background: Liver microsomes are a subcellular fraction often used to study metabolism.
For data set [2], the target named is T1, P2X purinoceptor 7 (Homo sapiens, UniProt Q99572).
T1 sequence (Q99572 whole entry): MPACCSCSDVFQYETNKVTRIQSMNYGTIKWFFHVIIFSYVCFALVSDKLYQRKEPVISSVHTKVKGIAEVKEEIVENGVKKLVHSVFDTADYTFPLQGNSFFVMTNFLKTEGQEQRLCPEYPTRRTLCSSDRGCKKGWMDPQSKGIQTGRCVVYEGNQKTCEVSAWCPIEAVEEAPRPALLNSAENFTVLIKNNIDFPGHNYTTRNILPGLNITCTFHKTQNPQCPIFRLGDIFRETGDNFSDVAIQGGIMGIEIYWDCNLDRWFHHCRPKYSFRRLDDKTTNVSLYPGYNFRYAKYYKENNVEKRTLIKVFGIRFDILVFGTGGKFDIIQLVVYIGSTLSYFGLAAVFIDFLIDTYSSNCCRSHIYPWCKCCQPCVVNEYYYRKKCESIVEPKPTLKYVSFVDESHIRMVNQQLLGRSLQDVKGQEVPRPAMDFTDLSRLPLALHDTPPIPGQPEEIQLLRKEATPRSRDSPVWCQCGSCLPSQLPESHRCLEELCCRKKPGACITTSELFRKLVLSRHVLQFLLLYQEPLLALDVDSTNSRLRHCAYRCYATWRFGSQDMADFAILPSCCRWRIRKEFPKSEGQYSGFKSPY
Kind of data set: Antagonist activity at human P2X7 receptor expressed in HEK293 cells assessed as inhibition of BzATP-induced YO PRO dye uptake preincubated for 20 mins followed by YO PRO dye and BzATP addition measured after 30 mins by fluorescence assay. The class given is cell-based.

The target of data set [3] is T1, P2X purinoceptor 7. The data set can be described thus: Antagonist activity at P2X7R in LPS-stimulated human THP1 cells assessed as inhibition of BzATP-induced IL-1beta release preincubated for 30 mins followed by BzATP stimulation and measured after 30 mins by sandwich ELISA. In general terms: In an ELISA, binding on a coated surface is turned into a signal by an enzyme label.

A short description of data set [4]: Intrinsic clearance in mouse liver microsomes. It counts as ADME, Microsome. The following applies: read-out: CLH.
Data set [5] can be described thus: Intrinsic clearance in rat liver microsomes. The class given is ADME, Microsome. The following applies: read-out: CLH.
The subject of data set [6] is MDR. Kind of data set: Apparent permeability across apical to basolateral side in MDCK cells expressing MDR. The following applies: dog, MDCK-MDR1. The class given is ADME, cell-based, Canis lupus familiaris.
Data set [7] relates to MDR. Kind of data set: Efflux ratio of apparent permeability in MDCK cells expressing MDR. The class given is ADME, cell-based, Canis lupus familiaris. The following applies: dog, MDCK-MDR1.
For data set [8], the target named is T2, P2X purinoceptor 7 (Rattus norvegicus, UniProt Q64663).
T2 sequence (Q64663 whole entry): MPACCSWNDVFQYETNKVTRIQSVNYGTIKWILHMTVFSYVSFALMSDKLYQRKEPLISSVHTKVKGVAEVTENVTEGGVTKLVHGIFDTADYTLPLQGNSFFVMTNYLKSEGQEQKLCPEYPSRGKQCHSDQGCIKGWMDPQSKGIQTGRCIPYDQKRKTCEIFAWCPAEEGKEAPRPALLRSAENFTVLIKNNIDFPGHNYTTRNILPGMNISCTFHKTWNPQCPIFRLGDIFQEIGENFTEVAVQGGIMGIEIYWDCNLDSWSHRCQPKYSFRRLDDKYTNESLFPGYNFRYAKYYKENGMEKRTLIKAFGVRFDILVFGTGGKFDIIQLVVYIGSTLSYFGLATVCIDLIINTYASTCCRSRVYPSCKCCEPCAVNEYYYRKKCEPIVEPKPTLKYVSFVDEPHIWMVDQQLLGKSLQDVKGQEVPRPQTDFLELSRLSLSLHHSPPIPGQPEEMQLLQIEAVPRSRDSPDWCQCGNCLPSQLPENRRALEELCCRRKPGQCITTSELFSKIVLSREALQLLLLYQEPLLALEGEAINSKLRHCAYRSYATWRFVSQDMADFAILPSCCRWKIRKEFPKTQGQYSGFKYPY
Kind of data set: Antagonist activity at rat P2X7 receptor assessed as inhibition of BzATP-induced YO PRO dye uptake preincubated for 20 mins followed by YO PRO dye and BzATP addition measured after 30 mins by fluorescence assay.

For data set [9], the target named is T3, P2X purinoceptor 7 (Mus musculus, UniProt Q9Z1M0).
T3 sequence (Q9Z1M0 whole entry): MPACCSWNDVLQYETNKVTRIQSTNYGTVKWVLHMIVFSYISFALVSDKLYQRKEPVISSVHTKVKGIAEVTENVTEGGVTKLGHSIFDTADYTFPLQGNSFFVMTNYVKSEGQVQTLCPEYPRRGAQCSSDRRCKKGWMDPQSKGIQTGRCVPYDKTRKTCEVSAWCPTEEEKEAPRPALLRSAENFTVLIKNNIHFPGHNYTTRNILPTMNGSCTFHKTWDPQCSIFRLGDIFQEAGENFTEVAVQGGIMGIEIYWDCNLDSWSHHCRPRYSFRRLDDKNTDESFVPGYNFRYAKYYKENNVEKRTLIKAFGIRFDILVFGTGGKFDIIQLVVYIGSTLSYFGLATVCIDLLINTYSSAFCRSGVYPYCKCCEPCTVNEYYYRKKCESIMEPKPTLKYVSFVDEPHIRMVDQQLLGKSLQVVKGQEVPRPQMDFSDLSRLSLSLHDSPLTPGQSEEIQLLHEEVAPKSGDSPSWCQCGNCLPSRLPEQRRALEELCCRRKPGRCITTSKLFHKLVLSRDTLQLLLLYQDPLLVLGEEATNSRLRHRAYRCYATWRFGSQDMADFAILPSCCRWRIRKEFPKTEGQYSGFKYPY
Kind of data set: Antagonist activity at mouse P2X7 receptor assessed as inhibition of BzATP-induced YO PRO dye uptake preincubated for 20 mins followed by YO PRO dye and BzATP addition measured after 30 mins by fluorescence assay.

`CN(C)[C@@H]1CCN(c2ccc3c(C(=O)NCC4CCC(F)(F)CC4)c(Cl)ccc3n2)C1`: the microsomal CLint in data set [1] was found to be 45 µL/min/mg; in data set [4] it was 50 µL/min/mg; in data set [5], 22 µL/min/mg. In addition, the IC50 (usually the concentration at which inhibition is half-maximal) came out at 0.027 µM on P2X purinoceptor 7 [2] and 0.04 µM at P2X purinoceptor 7 [3]. Besides, the Papp A→B (commonly the apparent permeability from the apical to the basolateral side of a cell layer) in the data set on MDR [6] stood at 6.2 ×10⁻⁶ cm/s. Moreover, the efflux ratio – broadly, a quotient of directional permeabilities that is used to spot active efflux – in the data set with MDR [7] turned out to be 7.2.

On to `O=C(NCC1CCC(F)(F)CC1)c1c(Cl)ccc2nc(C3CCCC3)ccc12`, for which the values for the IC50 at P2X purinoceptor 7 [2] and on P2X purinoceptor 7 [3] were 0.094 µM and 0.16 µM, respectively.

`C[C@H]1CCC[C@@](O)(CNC(=O)c2c(Cl)ccc3nc(N4CC[C@@H](F)C4)ccc23)C1`: the microsomal CLint in data set [1] worked out at 21 µL/min/mg; in data set [4], 65 µL/min/mg; in data set [5], 23 µL/min/mg. The IC50 on P2X purinoceptor 7 [2] amounted to 0.0045 µM; at P2X purinoceptor 7 [3], 0.0248 µM; on P2X purinoceptor 7 [8] it was 0.64 µM; at P2X purinoceptor 7 [9], 1.4 µM. Besides, the Papp A→B with MDR [6] came out at 8.9 ×10⁻⁶ cm/s. The efflux ratio in the data set on MDR [7] is 4.3.

Regarding `O=C(NCC1CCCC(F)(F)C1)c1c(Cl)ccc2nc(N3CC[C@@H](F)C3)ccc12` (stereo not given in full), the microsomal CLint in data set [1] came out at 41 µL/min/mg; in [4], 102 µL/min/mg; in data set [5], 102 µL/min/mg. The IC50 at P2X purinoceptor 7 [2] came to 0.0049 µM; on P2X purinoceptor 7 [3] it was 0.118 µM; on P2X purinoceptor 7 [9], 2 µM. Moreover, the Papp A→B in the data set with MDR [6] was 16.4 ×10⁻⁶ cm/s. Moreover, the efflux ratio in the data set on MDR [7] was determined as 1.8.

With `CC1(C)OB(C2=CCCC2)OC1(C)C`, the IC50 at P2X purinoceptor 7 [2] was 0.031 µM; on P2X purinoceptor 7 [3], 0.075 µM.

Regarding `O=C(NCC1CCC(F)(F)CC1)c1c(Cl)ccc2nc(N3CCCC3)ccc12`, the figures for the microsomal CLint in [1], in [4] and in data set [5] were 87 µL/min/mg, 49 µL/min/mg and 57 µL/min/mg, respectively. Also, the IC50 at P2X purinoceptor 7 [2] is 0.037 µM; on P2X purinoceptor 7 [3] it was 0.108 to 0.11 µM. For the same compound, in the data set on MDR [6], the Papp A→B worked out at 31.8 ×10⁻⁶ cm/s. Besides, in the data set on MDR [7], the efflux ratio is 1.2.

For `O=C(NCC1CCC(F)(F)CC1)c1c(Cl)ccc2nc(C3=CCCC3)ccc12`, the IC50 on P2X purinoceptor 7 [2] worked out at 0.036 µM; at P2X purinoceptor 7 [3], 0.09 µM.

On to `C[C@@H]1CCC[C@@](O)(CNC(=O)c2c(Cl)ccc3nc(N4CC[C@@H](C(C)(C)O)C4)ccc23)C1`, for which the microsomal CLint in [1] was 75 µL/min/mg; in data set [4], 68 µL/min/mg; in data set [5], 10 µL/min/mg. The IC50 is 0.014 µM on P2X purinoceptor 7 [2], 0.0074 µM at P2X purinoceptor 7 [3], 0.13 µM on P2X purinoceptor 7 [8] and 3.69 µM at P2X purinoceptor 7 [9]. Besides, in the data set on MDR [6], the Papp A→B was found to be 1.5 ×10⁻⁶ cm/s. Besides, the efflux ratio in the data set on MDR [7] is 34.

For `COCCNc1ccc2c(C(=O)NCC3CCC(F)(F)CC3)c(Cl)ccc2n1`, the IC50 came out at 0.089 µM at P2X purinoceptor 7 [2] and 0.18 µM on P2X purinoceptor 7 [3].

For `O=C(NCC1CCC(F)(F)CC1)c1c(Cl)ccc2nc(N3CC[C@@H](F)C3)ccc12`, the microsomal CLint is 12 µL/min/mg in data set [1], 10 µL/min/mg in data set [4] and 31 µL/min/mg in data set [5]. For the same compound, the values for the IC50 on P2X purinoceptor 7 [2] and on P2X purinoceptor 7 [3] were 0.019 µM and 0.104 µM, respectively. The Papp A→B in the data set with MDR [6] was 18.4 ×10⁻⁶ cm/s. Also, the efflux ratio with MDR [7] came to 0.69.

`C[C@@H]1CCC[C@@](O)(CNC(=O)c2c(Cl)ccc3nc(N4CCC(N(C)C)C4)ccc23)C1` (stereo not given in full): the values for the microsomal CLint in data set [1], in data set [4] and in data set [5] were 44 µL/min/mg, 52 µL/min/mg and 32 µL/min/mg, respectively. The IC50 was 0.0036 µM at P2X purinoceptor 7 [2], 0.006 µM on P2X purinoceptor 7 [3], 0.549 µM on P2X purinoceptor 7 [8] and 2 µM at P2X purinoceptor 7 [9]. Moreover, the Papp A→B in the data set on MDR [6] was found to be 1.4 ×10⁻⁶ cm/s. In the data set on MDR [7], the efflux ratio turned out to be 39.

Consider `COCCOc1ccc2c(C(=O)NCC3CCC(F)(F)CC3)c(Cl)ccc2n1`, for which the figures for the IC50 on P2X purinoceptor 7 [2] and on P2X purinoceptor 7 [3] were 0.025 µM and 0.14 µM, respectively.

`O=C(NCC1CCC(F)(F)CC1)c1c(Cl)ccc2ncccc12`: the IC50 at P2X purinoceptor 7 [2] worked out at 0.23 µM; on P2X purinoceptor 7 [3], 0.22 µM.

As to `O=C(NCC1CCC(F)(F)CC1)c1c(Cl)ccc2nc(NCCO)ccc12`, the IC50 at P2X purinoceptor 7 [2] was 0.072 µM; at P2X purinoceptor 7 [3], 0.076 µM.

Consider `O=C(NCC1CCC(F)(F)CC1)c1c(Cl)ccc2nc(N3CCC(NCCO)C3)ccc12` (stereo not given), for which the microsomal CLint in data set [1] came out at 17 µL/min/mg; in [4] it was 10 µL/min/mg; in [5], 10 µL/min/mg. Moreover, the figures for the IC50 on P2X purinoceptor 7 [2] and on P2X purinoceptor 7 [3] were 0.01 µM and 0.012 µM, respectively. Besides, the Papp A→B in the data set with MDR [6] amounted to 0.18 ×10⁻⁶ cm/s. For the same compound, the efflux ratio in the data set with MDR [7] was found to be 114.

On to `O=C(NCC1CCC(F)(F)CC1)c1c(Cl)ccc2nc(N3CCC(CCO)C3)ccc12` (stereo not given), for which the microsomal CLint in data set [1] worked out at 32 µL/min/mg; in data set [4] it was 23 µL/min/mg; in data set [5], 46 µL/min/mg. Moreover, the IC50 was found to be 0.047 µM on P2X purinoceptor 7 [2] and 0.1 µM on P2X purinoceptor 7 [3]. Also, the Papp A→B with MDR [6] turned out to be 16.5 ×10⁻⁶ cm/s. Besides, the efflux ratio in the data set on MDR [7] stood at 3.8.

Regarding `CN(C)[C@H]1CCN(c2ccc3c(C(=O)NCC4CCC(F)(F)CC4)c(Cl)ccc3n2)C1`, the microsomal CLint in [1] amounted to 80 µL/min/mg; in data set [4], 24 µL/min/mg; in [5] it was 25 µL/min/mg. In addition, the IC50 on P2X purinoceptor 7 [2] stood at 0.05 µM; at P2X purinoceptor 7 [3], 0.075 µM. In the data set with MDR [6], the Papp A→B is 6 ×10⁻⁶ cm/s. In addition, the efflux ratio in the data set with MDR [7] is 6.9.

Consider `O=C(NC[C@]1(O)CCCC(F)(F)C1)c1c(Cl)ccc2nc(N3CC[C@@H](F)C3)ccc12`, for which the microsomal CLint in data set [1] stood at 50 µL/min/mg; in [4], 48 µL/min/mg; in data set [5] it was 31 µL/min/mg. The IC50 on P2X purinoceptor 7 [2] is 0.019 µM; at P2X purinoceptor 7 [3] it was 0.0364 µM; on P2X purinoceptor 7 [8] it was 4.3 µM; on P2X purinoceptor 7 [9], 4.83 µM. Further, the Papp A→B in the data set with MDR [6] came to 6.8 ×10⁻⁶ cm/s. Further, the efflux ratio with MDR [7] worked out at 8.7.
